This is an account of results in ChEMBL document CHEMBL5149985, “Discovery of cytotoxic natural products from Red Sea sponges: Structure and synthesis” (Eur J Med Chem, 2021).

SMILES strings stand for the structures.

For assay [1], the system named is A549. Kind of assay: Anticancer activity against human A549 cells assessed as inhibition of cell growth by dilution assay. It counts as functional, cell-based.
For assay [2], the system named is HT-29. In words: Anticancer activity against human HT-29 cells assessed as inhibition of cell growth by dilution assay. The class given is functional, cell-based.
Assay [3] relates to P388. Kind of assay: Anticancer activity against mouse P388 cells assessed as inhibition of cell growth by dilution assay. It counts as functional, cell-based.
For assay [4], the system named is A549. Kind of assay: Anticancer activity against human A549 cells assessed as inhibition of cell growth. The class given is functional, cell-based.
In assay [5] the test system is P388. Kind of assay: Anticancer activity against mouse P388 cells assessed as inhibition of cell growth. It counts as functional, cell-based.
For assay [6], the system named is HT-29. In words: Anticancer activity against human HT-29 cells assessed as inhibition of cell growth. The class given is functional, cell-based.
The next assay concerns Daoy. In words: Anticancer activity against human Daoy cells assessed as inhibition of cell growth. It counts as functional, cell-based.
For assay [7], the system named is HeLa. Kind of assay: Anticancer activity against human HeLa cells assessed as inhibition of cell growth. It counts as functional, cell-based.
Assay [8] concerns L5178Y. Kind of assay: Anticancer activity against mouse L5178Y assessed as cell growth inhibition by [3H]-thymidine assay. The class given is functional, cell-based.
Assay [9] has as its system L5178Y. Kind of assay: Anticancer activity against mouse L5178Y assessed as cell growth inhibition by [3H]-thymidine assay relative to control. The class given is functional.
The test system of assay [10] is A549. Kind of assay: Antiproliferative activity against human A549 cells assessed as cell growth inhibition incubated for 72 hrs by SRB assay. As to conditions: A549, 72 h. The class given is functional, cell-based. (In general: Sulforhodamine B stains cellular protein and so reports cell mass.)
For assay [11], the system named is MDA-MB-231. Kind of assay: Antiproliferative activity against human MDA-MB-231 cells assessed as cell growth inhibition incubated for 72 hrs by SRB assay. It counts as functional, cell-based. As to conditions: MDA-MB-231, 72 h.
The test system of assay [12] is HT-29. Kind of assay: Antiproliferative activity against human HT-29 cells assessed as cell growth inhibition incubated for 72 hrs by SRB assay. It counts as functional, cell-based. As to conditions: HT-29, 72 h.
The next assay relates to BT-474. In words: Anticancer activity against human BT-474 cells assessed as cell growth inhibition incubated for 48 hrs by MTT assay. The class given is functional, cell-based. As to conditions: BT-474, 48 h. In general terms: Tetrazolium assays rely on reduction of a dye to a coloured formazan, in cell work by metabolically active cells.
Assay [13] relates to HeLa. In words: Antiproliferative activity against human HeLa cells assessed as cell viability measured after 24 hrs by MTT assay. It counts as functional, cell-based.
The test system of assay [14] is MDA-MB-231. Kind of assay: Anticancer activity against human MDA-MB-231 cells assessed as cell viability measured after 24 hrs by MTT assay. It counts as functional, cell-based. As to conditions: MDA-MB-231, 24 h.
Assay [15] deals with HCT-116. In words: Antiproliferative activity against human HCT-116 cells assessed as cell viability measured after 24 hrs by MTT assay. It counts as functional, cell-based. As to conditions: HCT-116, 24 h.
Assay [16] has as its system A549. In words: Anticancer activity against human A549 cells assessed as cell growth inhibition. It counts as functional, cell-based.
The subject of a further assay is PC-3. Kind of assay: Anticancer activity against human PC-3 cells assessed as inhibition of cell growth. It counts as functional, cell-based.
For assay [17], the system named is MCF7. Kind of assay: Anticancer activity against human MCF7 cells assessed as inhibition of cell growth. The class given is functional, cell-based.
In assay [18] the test system is MCF7. In words: Anticancer activity against human MCF7 cells assessed as inhibition of cell growth by MTT assay. The class given is functional, cell-based.
A further assay relates to HepG2. Kind of assay: cells. As to conditions: Homo sapiens.
Assay [19] relates to HCT-116. Kind of assay: cells. As to conditions: Homo sapiens.
Description: Anticancer activity against human HCT-116 cells assessed as inhibition of cell growth by MTT assay
Assay [20] concerns P388. In words: Anticancer activity against mouse P388 cells assessed as reduction in cell growth. The class given is functional, cell-based.

Description for HepG2: Anticancer activity against human HepG2 cells assessed as inhibition of cell growth by MTT assay

Regarding `CC1(C)CCC[C@]2(C)[C@H]3C[C@@H](O)[C@]4(C)c5cocc5C(=O)C[C@H]4[C@]3(C)CC[C@@H]12` [SALMAHYRTISOL B], the figures for the IC50 in the assay on A549 [1], with HT-29 [2] and with P388 [3] were 2.2 nM, more than 2.2 nM and 2.2 nM, respectively.

Turning to `C=C(CCC[C@@]1(C)CC[C@H]([C@@H](C)C(=O)OC)OO1)CCC1(O)C(=C)CCCC1(C)C` (stereo partly specified), the IC50 in the assay on A549 [4], with P388 [5] and in the assay on HT-29 [6] was more than 2.4 nM throughout.

In the case of `O=C(O)CCCCCC#C/C=C/CCCCC#C/C=C/Br`, the half-inhibitory concentration (IC50) with Daoy stood at 65.8 nM; in the assay with HeLa [7], 86.5 nM.

Turning to `O=Cc1c[nH]c2ccccc12` [3-FORMYLINDOLE], the IC50 in the assay on L5178Y [8] was found to be 69 nM. Further, the “inhibition (INH)” value in the assay on L5178Y [9] is 53%.

With `COc1ccc2[nH]c3c(-c4c[nH]c5cc(O)ccc45)ncc(C(=O)O)c3c2c1`, the results for the IC50 with A549 [10], in the assay with MDA-MB-231 [11] and with HT-29 [12] were 100000 nM, 90000 nM and 85000 nM, respectively.

Regarding `O[C@]12CCCCCC[C@@H]3CCN4CCC[C@@H](CCCCCC[C@@H]5CCN(CCC1)[C@H]2O5)[C@@H]4O3`, the 50% inhibitory concentration (IC50) in the assay on BT-474 is 9300 nM.

As to `COC1=C(Br)C[C@]2(OC=C1Br)ON=C(C(=O)NCCCOc1c(Br)cc(CCN)cc1Br)[C@@H]2O` [PSAMMAPLYSIN A], the 50% inhibitory concentration (IC50) in the assay with HeLa [13] was found to be 8500 nM; with MDA-MB-231 [14], 3900 nM; with HCT-116 [15], 8500 nM.

Take `NC(=O)c1cnc(-c2c[nH]c3cc(O)ccc23)c2[nH]c3ccc(O)cc3c12`: the IC50 came out at 35000 nM in the assay with A549 [10], 42000 nM in the assay on MDA-MB-231 [11] and 45000 nM with HT-29 [12].

As to `COC(=O)c1c[nH]c2ccc(O)cc12`, in the assay with L5178Y [8], the IC50 was determined as 52 nM. The “inhibition (INH)” value in the assay on L5178Y [9] is listed as 36%.

For the compound `C=C1CCC[C@@H]2[C@@](C)(CC[C@@]3(C)CC[C@@H]([C@H](C)C(=O)O)OO3)[C@H](C)CC[C@@]12C`, the half-maximal inhibitory concentration (IC50) was determined as 24000 nM in the assay on A549 [16], 44000 nM in the assay with PC-3 and 36000 nM in the assay on MCF7 [17].

In the case of `CC(=O)O[C@H]1C[C@@H]2[C@@]3(C)CCCC(C)(C)[C@@H]3CC[C@@]2(C)[C@@H]2CC=C(C(C)=O)[C@@H]3[C@@H](O)C[C@@]132`, the IC50 in the assay with MCF7 [18] came to 1.3 nM; in the assay on HepG2, 4.7 nM; in the assay with HCT-116 [19] it was 1.7 nM.

For `COC1=C(Br)C[C@@]2(OC=C1Br)ON=C(C(=O)NCCCOc1c(Br)cc(CCNC(N)=O)cc1Br)[C@H]2O`, the IC50 was found to be 22200 nM with HeLa [13], 19400 nM in the assay with MDA-MB-231 [14] and 8200 nM in the assay with HCT-116 [15].

For the compound `C=C(CCC1=C(C)CCCC1(C)C)C(O)CC[C@@]1(C)CC[C@H]([C@@H](C)C(=O)O)OO1` (stereo partly specified), the IC50 in the assay with A549 [4], in the assay with P388 [5] and in the assay on HT-29 [6] was more than 2.4 nM each time.

With `[O-][N+]12CCC[C@]3(O)CCCCCC[C@@H]4CCN5CCC[C@@H](CCCCCC[C@H](CC1)O[C@@H]32)[C@@H]5O4` (stereo partly specified), in the assay with BT-474, the half-inhibitory concentration (IC50) stood at 29500 nM.

Turning to `CC1=CCC[C@H]2[C@](C)(CC3=C(O)C(=O)C=C(O)C3=O)[C@@H](C)CC[C@]12C`, in the assay on P388 [20], the half-inhibitory concentration (IC50) was determined as 3.6 nM.

With `COC1=CC(=O)C(C[C@]2(C)[C@@H](C)CC[C@]3(C)C(C)=CCC[C@@H]23)=C(O)C1=O`, the IC50 in the assay on P388 [20] is more than 54 nM.

On to `C#C/C=C\CCCCC#CC#CCCCCCC#CCO`, for which the IC50 in the assay with MCF7 [17] is 11700 nM.

Take `CC[C@@]1(C)CCC[C@]2(C)[C@H]3C[C@H](OC(C)=O)[C@]4(C)[C@H]5CO[C@](C)(O)C5CC[C@H]4[C@]3(C)CC[C@@H]12` (stereo partly specified): the 50% inhibitory concentration (IC50) worked out at 4 nM with MCF7 [18], 3.3 nM with HepG2 and 1.7 nM with HCT-116 [19].

Turning to `CO[C@@]1(C)CCC(C(C)C)=C[C@@H]2[C@H]1CC[C@]2(C)O`, the concentration for half-maximal inhibition (IC50) in the assay with P388 [5] was more than 4 nM.

As to `C[C@@H]1CN2CCC[C@H]3CCCCCC[C@H]4CCN5CCC[C@@](O)(CCCCCC[C@@H]1O[C@H]32)[C@H]5O4` [XESTOSPONGIN B], in the assay on BT-474, the IC50 came to 52500 nM.

Take `CC[C@@]1(C)CCC[C@]2(C)[C@H]3C[C@H](OC(C)=O)[C@]4(C)C=C(C(C)=O)[C@H](OC(C)=O)C[C@H]4[C@]3(C)CC[C@@H]12`: the half-inhibitory concentration (IC50) with MCF7 [18] came to 4.8 nM; in the assay on HepG2 it was 2.9 nM; with HCT-116 [19] it was 1.3 nM.

What is called IC50 is the midpoint of a concentration-inhibition curve.
